Measured values as given in patent publication US11597919B2, “Systems, methods and compositions for sequence manipulation with optimized functional CRISPR-Cas systems” (The Broad Institute, Inc., priority 2013, dated 2023).

Legend:
human EMX1 locus [1] = assay: Sequencing of amplicons containing the EMX1 target locus; type: cell-based; settings: 327 amplicons
Description: HEK 293FT or N2A cells were transfected with plasmid DNA as described above. After transfection, the cells were incubated at 37° C. for 72 hours before genomic DNA extraction. Genomic DNA was extracted using the QuickExtract DNA extraction kit (Epicentre) following the manufacturer's protocol. Briefly, cells were resuspended in QuickExtract solution and incubated at 65° C. for 15 minutes and 98° C. for 10 minutes. Extracted genomic DNA was immediately processed or stored at −20° C.
Since DSBs in mammalian nuclei are partially repaired by the non-homologous end joining (NHEJ) pathway, which leads to the formation of indels, the Surveyor assay was used to detect potential cleavage activity at the target EMX1 locus (FIG. 7) (see e.g. Guschin et al., 2010, Methods Mol Biol 649: 247). Co-transfection of all four CRISPR components was able to induce up to 5.0% cleavage in the protospacer (see FIG. 2D). […] Removing any of the remaining three components abolished the genome cleavage activity of the CRISPR system (FIG. 2D). Sanger sequencing of amplicons containing the target locus verified the cleavage activity: in 43 sequenced clones, 5 mutated alleles (11.6%) were found. Similar experiments using a variety of guide sequences produced indel percentages as high as 29% (see FIGS. 3-6, 10, and 11).

human EMX1 locus [2] = assay: Surveyor assay for genome modification at the human EMX1 locus in HEK 293FT cells; type: cell-based; settings: co-expression with EMX1-targeting chimeric crRNA; n=3
Description: Cells were transfected using Lipofectamine 2000 (Life Technologies) following the manufacturer's recommended protocol. For each well of a 24-well plate a total of 800 ng of plasmids were used.
Genomic DNA was extracted using the QuickExtract DNA extraction kit (Epicentre) following the manufacturer's protocol. […] Extracted genomic DNA was immediately processed or stored at −20° C.
The genomic region surrounding a CRISPR target site for each gene was PCR amplified, and products were purified using QiaQuick Spin Column (Qiagen) following manufacturer's protocol. A total of 400 ng of the purified PCR products were mixed with 2 μl 10× Taq polymerase PCR buffer (Enzymatics) and ultrapure water to a final volume of 20 μl, and subjected to a re-annealing process to enable heteroduplex formation: 95° C. for 10 min, 95° C. to 85° C. ramping at −2° C./s, 85° C. to 25° C. at −0.25° C./s, and 25° C. hold for 1 minute. After re-annealing, products were treated with Surveyor nuclease and Surveyor enhancer S (Transgenomics) following the manufacturer's recommended protocol, and analyzed on 4-20% Novex TBE poly-acrylamide gels (Life Technologies). Gels were stained with SYBR Gold DNA stain (Life Technologies) for 30 minutes and imaged with a Gel Doc gel imaging system (Bio-rad). Quantification was based on relative band intensities, as a measure of the fraction of cleaved DNA.

HEK 293FT cells = assay: Nuclease and double-nicking activity of potential nickases, SURVEYOR analysis (Example 10); type: cell-based, human; settings: 400 ng nickase, 100 ng sgRNA
Description: Nuclease and double-nicking activities for all potential nickases were tested in HEK 293FT cells as follows: co-transfection of 400 ng of nickase and 100 ng of U6-driven sgRNA (100 ng for one guide, or 50 ng each for a pair of sgRNAs) by Lipofectamine 2000 into ˜200,000 cells. DNAs from transfected cells were collected for SURVEYOR analysis.

RNA = settings: cited from earlier work
[3] = test system: A375 melanoma cell line (BRAF V600E); settings: cited from earlier work
[4] = test system: target DNA with 5′-NGG PAM; assay: Cleavage of target DNA bearing 5′-NGG PAM by PI domain chimeras (Example 12); type: cell-based, human; settings: 5′-GGGCT
Description: Cells were transfected using Lipofectamine 2000 (Life Technologies) at 70-80% confluency following the manufacturer's recommended protocol.
Genomic DNA was extracted using the QuickExtract DNA Extraction Solution (Epicentre) following the manufacturer's protocol.
400 ng total of the purified PCR products were mixed with 2 μl 10× Taq DNA Polymerase PCR buffer (Enzymatics) and ultrapure water to a final volume of 20 μl, and subjected to a re-annealing process to enable heteroduplex formation: 95° C. for 10 min, 95° C. to 85° C. ramping at −2° C./s, 85° C. to 25° C. at −0.25° C./s, and 25° C. hold for 1 min. After re-annealing, products were treated with SURVEYOR nuclease and SURVEYOR enhancer S (Transgenomics) following the manufacturer's recommended protocol, and analyzed on 4-20% Novex TBE poly-acrylamide gels (Life Technologies). Gels were stained with SYBR Gold DNA stain (Life Technologies) for 30 min and imaged with a Gel Doc gel imaging system (Bio-rad). Quantification was based on relative band intensities. Indel percentage was determined by the formula, 100×(1−(1−(b+c)/(a+b+c))^1/2), where a is the integrated intensity of the undigested PCR product, and b and c are the integrated intensities of each cleavage product.

In the case of “SpCas9n: SpCas9 with aspartate-to-alanine substitution (D10A) in the RuvC I catalytic domain, a nickase”, the “indels detected by sequencing” value (human EMX1 locus [1]) is reported as “did not detect any indels” and the “indels at the EMX1 protospacer target” value (human EMX1 locus [2]) is reported as “does not generate indels”.

For “Cbh-hSpCas9(D10A)-NLS: SpCas9 RuvCI mutant D10A, homology set”, the “Functional?” value (HEK 293FT cells) was “nickase activity”.

For “N55K mutant: N55K mutant of the MS2 bacteriophage coat protein”, the binding affinity (RNA) is given as “higher binding affinity than wild type MS2”.

For `CCCS(=O)(=O)Nc1ccc(F)c(C(=O)c2c[nH]c3ncc(Cl)cc23)c1F` [PLX4720], the “sensitivity of cell line to BRAF inhibitor” value [3] is given as “naturally sensitive”.

For “Cbh-hSpCas9(H840A)-NLS: SpCas9 HNH mutant H840A, homology set”, the “Functional?” value (HEK 293FT cells) was “no activity”.

B1: Sp-St3Cas9: SpCas9 with the PI domain of St3Cas9, SEQ ID NO: 121 (protein)
chain: MDYKDHDGDYKDHDIDYKDDDDKMAPKKKRKVGIHGVPAADKKYSIGLDIGTNSVGWAVITDEYKVPSKKFKVLGNTDRHSIKKNLIGALLFDSGETAEATRLKRTARRRYTRRKNRICYLQEIFSNEMAKVDDSFFHRLEESFLVEEDKKHERHPIFGNIVDEVAYHEKYPTIYHLRKKLVDSTDKADLRLIYLALAHMIKFRGHFLIEGDLNPDNSDVDKLFIQLVQTYNQLFEENPINASGVDAKAILSARLSKSRRLENLIAQLPGEKKNGLFGNLIALSLGLTPNFKSNFDLAEDAKLQLSKDTYDDDLDNLLAQIGDQYADLFLAAKNLSDAILLSDILRVNTEITKAPLSASMIKRYDEHHQDLTLLKALVRQQLPEKYKEIFFDQSKNGYAGYIDGGASQEEFYKFIKPILEKMDGTEELLVKLNREDLLRKQRTFDNGSIPHQIHLGELHAILRRQEDFYPFLKDNREKIEKILTFRIPYYVGPLARGNSRFAWMTRKSEETITPWNFEEVVDKGASAQSFIERMTNFDKNLPNEKVLPKHSLLYEYFTVYNELTKVKYVTEGMRKPAFLSGEQKKAIVDLLFKTNRKVTVKQLKEDYFKKIECFDSVEISGVEDRFNASLGTYHDLLKIIKDKDFLDNEENEDILEDIVLTLTLFEDREMIEERLKTYAHLFDDKVMKQLKRRRYTGWGRLSRKLINGIRDKQSGKTILDFLKSDGFANRNFMQLIHDDSLTFKEDIQKAQVSGQGDSLHEHIANLAGSPAIKKGILQTVKVVDELVKVMGRHKPENIVIEMARENQTTQKGQKNSRERMKRIEEGIKELGSQILKEHPVENTQLQNEKLYLYYLQNGRDMYVDQELDINRLSDYDVDHIVPQSFLKDDSIDNKVLTRSDKNRGKSDNVPSEEVVKKMKNYWRQLLNAKLITQRKFDNLTKAERGGLSELDKAGFIKRQLVETRQITKHVAQILDSRMNTKYDENDKLIREVKVITLKSKLVSDFRKDFQFYKVREINNYHHAHDAYLNAVVGTALIKKYPKLESEFVYGDYKVYDVRKMIAKSEQEIGKATAKYFFYSNIMNFFKTEITLANGEIRKRPLIETNGETGEIVWDKGRDFATVRKVLSMPQVNIVKKTVEEQNHGLDRGKPKGLFNANLSSKPKPNSNENLVGAKEYLDPKKYGYGGYAGISNSFTVLVKGTIEKGAKKKITNVLEFQGISILDRINYRKDKLNFLLEKGYKDIELIIELPKYSLFELSDGSRRMLASILSTNNKRGEIHKGNQIFLSQKFVKLLYHAKRISNTINENHRKYVENHKKEFEELFYYILEFNENYVGAKKNGKLLNSAFQSWQNHSIDELCSSFIGPTGSERKGLFELTSRGSAADFEFLGVKIPRYRDYTPSSLLKDATLIHQSVTGLYETRIDLAKLGEGKRPAATKKAGQAKKKK
With B1 the “cleavage of target DNA with 5′-NGG PAM” value [4] was “retained cleavage activity for the target DNA with 5′-NGG PAM, albeit at a lower level than that of SpCas9”.
